From patent US8999995B2, “Isotopically enriched arylsulfonamide CCR3 antagonists” (Axikin Pharmaceuticals, Inc., priority 2010, dated 2015)
pKi: −log10 of the molar value. Where two headings read alike, the source gives them in different places.

Assays:
[1] = Pharmacokinetic studies in male CD1 mice (PO and IV dosing, plasma by HPLC and MS); format: in vivo, mouse; conditions: for Cmax / AUC(0-inf): male, CD1, mouse
Method: Pharmacokinetic properties of compounds A1 and A2 were determined using 144 male CD1 mice, each approximately 25 g. Animals were acclimated for 2-3 days prior to study. Body weights of animals were measured for randomization. Animals were randomized into groups of 3 mice by body weights. Compounds A1 and A2 were provided at 2 mg/mL for oral dosing and 0.2 mg/mL for intravenous dosing. Each mouse received 100 μL of a test compound (or a body weight justified dose (5 mL/kg) via PO or IV on dosing days. Approximately 1.0 mL of the whole blood was collected for each animal via cardiac puncture at each time points. The blood was collected into lithium heparin tubes, processed to plasma, and snap frozen in dry ice. Plasma samples were stored at −80° C. before analysis. The samples were further analyzed by HPLC and MS.

[2] = biological target: T1, CCR3 receptor (UniProt P51677); assay: CCR3 receptor binding assay ([125I]-labeled human eotaxin/CCL11 displacement on cells); conditions: 0.1 nM [125I]-labeled human eotaxin/CCL11, 60 min at room temperature
T1 sequence (P51677 1-355): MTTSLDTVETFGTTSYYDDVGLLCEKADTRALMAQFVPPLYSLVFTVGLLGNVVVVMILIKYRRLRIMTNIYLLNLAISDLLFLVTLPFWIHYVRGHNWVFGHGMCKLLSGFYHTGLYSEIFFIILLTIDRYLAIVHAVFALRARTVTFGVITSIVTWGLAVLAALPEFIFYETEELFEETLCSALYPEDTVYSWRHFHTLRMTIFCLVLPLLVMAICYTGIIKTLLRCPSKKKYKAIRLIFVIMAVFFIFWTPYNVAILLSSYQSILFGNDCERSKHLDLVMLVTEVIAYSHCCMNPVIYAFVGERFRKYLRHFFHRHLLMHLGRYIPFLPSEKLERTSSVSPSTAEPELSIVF
Method: Cells were washed once with PBS and resuspended in a binding buffer (25 mM HEPES pH 7.6, 5 mM MgCl2, 1 mM CaCl2, 0.5% BSA, 0.1% NaN3). […] of cell suspension (2×10^5 cells/well) and 0.1 nM [^125I]-labeled human eotaxin/CCL11 (2000 Ci/mmol specific activity) were mixed in a 96-well U-bottom polypropylene plate, and incubated for 60 min at room temperature for the binding reaction. The cell suspension was then transferred to a filtration plate (#MAFB, Millipore), and washed 3 times with the binding buffer containing 0.5 M NaCl, scintillant added, and the radioactivity was counted on a TopCount (Packard). For the determination of non-specific binding, the cell suspension and [^125I]-labeled human eotaxin/CCL11 were incubated in the presence of 500 nM of unlabeled human eotaxin/CCL11. See, Iino et al., “Molecular cloning and functional characterization of cynomolgus monkey (Macaca fascicularis) CC chemokine receptor, CCR3,” Cytokine 2002, 19, 276-286.

Cmax ([1]; oral, 10 mg/kg, 2 mg/mL oral, 0.2 mg/mL intravenous dosing, 5 mL/kg, read-out: Cmax): 149 ng/mL
AUC(0-inf) ([1]; oral, 10 mg/kg, AUCinf,norm, dose-normalised, heading: AUCinf,norm): 106 ng·h/mL
Cmax ([1]; oral, 10 mg/kg, dose-normalised, read-out: Cmax,norm): 14.9 ng/mL
AUC(0-inf) ([1]; oral, 10 mg/kg, read-out: AUCinf): 1060 ng·h/mL
MRT ([1]; mouse): 6.9 h
half-life ([1]; mouse): 2.51 h
bioavailability ([1]; mouse, PO versus IV): 31.8%
Tmax ([1]; mouse, oral, 10 mg/kg): 0.5 h
pKi [2]: 8.27
Structure (SMILES): [2H]c1c([2H])c(Sc2cc(Cl)cc(Cl)c2)c(S(=O)(=O)N2CCN(C3CCCC3)CC2)c([2H])c1C#N [Compound A1]
